According to patent US6358964B1, “Adenosine, A3 receptor modulators” (priority 2000, dated 2002):

Target: T1, human recombinant A3 adenosine receptors (Homo sapiens, UniProt P0DMS8)
T1 construct: expressed in transfected cells; host or cells: CHO cells
T1 sequence (P0DMS8 1-318): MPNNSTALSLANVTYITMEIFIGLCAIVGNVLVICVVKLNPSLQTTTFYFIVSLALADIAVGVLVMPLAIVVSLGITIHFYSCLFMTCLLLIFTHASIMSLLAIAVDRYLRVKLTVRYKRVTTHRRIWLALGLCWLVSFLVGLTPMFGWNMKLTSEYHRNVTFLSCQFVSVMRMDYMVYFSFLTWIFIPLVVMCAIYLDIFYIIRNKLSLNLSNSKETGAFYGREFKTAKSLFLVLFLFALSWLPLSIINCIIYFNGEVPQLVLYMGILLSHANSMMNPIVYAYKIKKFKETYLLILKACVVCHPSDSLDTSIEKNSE
Experiment: Human cloned A3 adenosine receptor binding assay ([3H]MRE3008-F20 displacement, CHO membranes)
Conditions: radioligand binding, read-out: binding affinity at human A3 receptors (hA3)
Method: Inhibitory binding constant, Ki, values can be calculated from those of IC50 according to the Cheng & Prusoff equation (Cheng and Prusoff, Biochem. Pharmacol. 22:3099-3108 (1973)), Ki=IC50/(1+[C*]/KD*), where [C*] is the concentration of the radioligand and KD* its dissociation constant.
The expression of the human […], A2A and A3 receptors in CHO cells has been previously described (Klotz et al., 1998). The cells were grown adherently and maintained in Dulbecco's modified Eagle's medium with nutrient mixture F12 without nucleosides at 37° C. in 5% CO2/95% air. Cells were split two or three times weekly and then the culture medium was removed for membrane preparations. […]
Binding of [^3H] […] Bound and free radioactivity were separated by filtering the assay mixture through Whatman GF/B glass-fiber filters using a Micro-mate 196 cell harvester (Packard Instrument Company). The filter bound radioactivity was counted on Top Count (efficiency 57%) with Micro-Scint 20. The protein concentration was determined according to a BioRad method (Bradford, M. M., “A rapid and sensitive method for the quantification of microgram quantities of protein utilizing the principle of protein dye-binding,” Anal. Biochem. 72, 248, 1976) with bovine albumin as reference standard.

Row | Ki | Structure (SMILES)
1 | 140 pM | COc1ccc(NC(=O)Nc2nc3ccc(Cl)cc3c3nc(-c4ccco4)nn23)cc1 [Compound 1]
2 | 190 pM | O=C(Nc1cccc(Cl)c1)Nc1nc2ccc(Cl)cc2c2nc(-c3ccco3)nn12 [Compound 2]
